What was measured:
SYK kinase = SYK kinase (Homo sapiens, UniProt P43405); experiment: SYK kinase assay (HTRF KinEASE-TK); assay type: biochemical; conditions: class symbols, read-out: Syk inhibition IC50
In short: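 SYK pre-incubated with compound for 10 min at room temperature, then reacted with biotinylated TK substrate and ATP for 30 min in buffer with 5 mM MgCl2, 1 mM MnCl2 and 1 mM DTT. HTRF 665/615 ratio read after 1 h detection. IC50 from variable-slope fit.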

[1] = In vivo pharmacokinetic analysis, single dose, ICR mice; conditions: mouse, male, plasma; for AUC(0-inf) / AUC(0-t) / Cmax / Tmax / half-life: single dose; for bioavailability: PO 10 mg/kg vs IV 2 mg/kg, read-out: F % (bioavailability)
Experimental: This is a single-dose study in ICR mice (male, n=9/administration) with intravenous and oral administration. Compound concentrations in plasma were measured and calculated for pharmacokinetic (PK) analysis via WinNonLin 6.4.

Ba/F3-TEL-SYK cells = target: T1, Ba/F3-TEL-SYK cells (Homo sapiens, UniProt P43405); experiment: Ba/F3-TEL-SYK cell-based assay (CellTiter-Glo proliferation); conditions: 72 hr, read-out: BaF3 Cell assay IC50
T1 construct: fused on or other part: N-terminal part of TEL (ETV6) with its oligomerising PNT/SAM domain, fused before the SYK part that carries the kinase domain; P41212 (Transcription factor ETV6)
Experimental: CellTiter-Glo® Luminescent Cell Viability Assay was used to determine the number of viable cells in culture based on quantitation of the ATP present, as an indicator of metabolically active cells. The assay was performed in the following steps: First, the testing compounds were dissolved in DMSO to make a stock solution. The stocks (10 mM) were then diluted to varying concentrations: […], 0.305 and 0.102 μM. An aliquot of 0.2 μl of diluted compounds were added to the 384 well assay plate. Second, added 40 μl of cell suspension with 800 Ba/F3-TEL-SYK cells into each well and incubated the plate at 37° C., 5% CO2 for 72 hr. Then, added 20 μl Cell Titer-Glo Reagent into each well of the cell culture plate. Mixed the contents for 2 min on an orbital shaker to lyse cells, and rest the plate at room temperature for 30 min. Finally, luminescence values were obtained using an Envision 2104 plate reader (PerkinElmer) and calculated the average data and Standard Deviation (SD) of DMSO and Reference (GS-9973, 1 μM) as high control and low control. To determine the IC50 value, fit the data using non-linear regression equation.

IC50 (SYK kinase)	AUC(0-inf) ([1]; IV Administration (2 mg/kg))	AUC(0-t) ([1]; IV Administration (2 mg/kg))	Cmax ([1]; IV Administration (2 mg/kg))	Tmax ([1]; IV Administration (2 mg/kg))	half-life ([1]; IV Administration (2 mg/kg))	AUC(0-inf) ([1]; PO Administration (10 mg/kg))	AUC(0-t) ([1]; PO Administration (10 mg/kg))	Cmax ([1]; PO Administration (10 mg/kg))	Tmax ([1]; PO Administration (10 mg/kg))	half-life ([1]; PO Administration (10 mg/kg))	bioavailability [1]	GI50 (Ba/F3-TEL-SYK cells)	SMILES
≤ 50 nM	2300 ng·h/mL	2290 ng·h/mL	3960 ng/mL	4.8 min	590 min	7370 ng·h/mL	7330 ng·h/mL	7520 ng/mL	15 min	265 min	64.2%	≤ 50 nM	c1nc2c(Nc3ccc(N4CCN(C5COC5)CC4)cc3)nc(-c3ccc4cn[nH]c4c3)cn2n1 [I53, 6-(1H-indazol-6-yl)-N-(4-(4-(oxetan-3-yl)piperazin-1-yl)phenyl)-[1,2,4]triazolo[1,5-a]pyrazin-8-amine]
≤ 50 nM	11400 ng·h/mL	11200 ng·h/mL	8810 ng/mL	4.8 min	99 min	28500 ng·h/mL	28500 ng·h/mL	2160 ng/mL	240 min	100 min	50.8%	50 to 500 nM	c1nc2c(Nc3ccc(N4CCOCC4)cc3)nc(-c3ccc4cc[nH]c4c3)cn2n1 [I10, 6-(1H-indol-6-yl)-N-(4-morpholinophenyl)-[1,2,4]triazolo[1,5-a]pyrazin-8-amine]
≤ 50 nM	500 ng·h/mL	499 ng·h/mL	1640 ng/mL	4.8 min	39 min	151 ng·h/mL	145 ng·h/mL	268 ng/mL	15 min	46.8 min	5.81%	≤ 50 nM	COc1cc(Nc2nc(-c3ccc4cn[nH]c4c3)cn3ncnc23)ccc1N1CCN(C2COC2)CC1 [I54, 6-(1H-indazol-6-yl)-N-(3-methoxy-4-(4-(oxetan-3-yl)piperazin-1-yl)phenyl)-[1,2,4]triazolo[1,5-a]pyrazin-8-amine]
≤ 50 nM	1010 ng·h/mL	1010 ng·h/mL	1870 ng/mL	4.8 min	34.2 min	2260 ng·h/mL	1960 ng·h/mL	696 ng/mL	15 min	168 min	38.9%	≤ 50 nM	COc1cc(Nc2nc(-c3ccc4cc[nH]c4c3)cn3ncnc23)ccc1N1CCOCC1 [I2, 6-(1H-indol-6-yl)-N-(3-methoxy-4-morpholinophenyl)-[1,2,4]triazolo[1,5-a]pyrazin-8-amine]
≤ 50 nM	1680 ng·h/mL	1680 ng·h/mL	5110 ng/mL	4.8 min	42.6 min	902 ng·h/mL	895 ng·h/mL	2570 ng/mL	15 min	89.4 min	10.7%	≤ 50 nM	COc1cc(Nc2nc(-c3ccc4cc[nH]c4c3)cn3ncnc23)ccc1N1CCN(C2COC2)CC1 [I58, 6-(1H-indol-6-yl)-N-(3-methoxy-4-(4-(oxetan-3-yl)piperazin-1-yl)phenyl)-[1,2,4]triazolo[1,5-a]pyrazin-8-amine]
≤ 50 nM	4670 ng·h/mL	4670 ng·h/mL	7360 ng/mL	4.8 min	43.2 min	14500 ng·h/mL	14500 ng·h/mL	14400 ng/mL	15 min	196 min	62%	≤ 50 nM	c1nc2c(Nc3ccc(N4CCN(C5COC5)CC4)cc3)nc(-c3ccc4cc[nH]c4c3)cn2n1 [I57, 6-(1H-indol-6-yl)-N-(4-(4-(oxetan-3-yl)piperazin-1-yl)phenyl)-[1,2,4]triazolo[1,5-a]pyrazin-8-amine]
≤ 50 nM	983 ng·h/mL	980 ng·h/mL	2520 ng/mL	4.8 min	15 min	448 ng·h/mL	381 ng·h/mL	88.8 ng/mL	30 min	54 min	7.77%	≤ 50 nM	COc1cc(Nc2nc(-c3ccc4cn[nH]c4c3)cn3ncnc23)ccc1N1CCOCC1 [I1, 6-(1H-indazol-6-yl)-N-(3-methoxy-4-morpholinophenyl)-[1,2,4]triazolo[1,5-a]pyrazin-8-amine]
≤ 50 nM	429 ng·h/mL	428 ng·h/mL	1320 ng/mL	4.8 min	12.6 min	125 ng·h/mL	115 ng·h/mL	108 ng/mL	15 min	28.8 min	5.38%	≤ 50 nM	COc1cc(Nc2nc(-c3ccc4cn[nH]c4c3)cn3ncnc23)ccc1N1CCC(C)(O)CC1 [I22, 1-(4-((6-(1H-indazol-6-yl)-[1,2,4]triazolo[1,5-a]pyrazin-8-yl)amino)-2-methoxyphenyl)-4-methylpiperidin-4-ol]
50 to 500 nM												50 to 500 nM	COc1cc(Nc2nc(-c3ccc4c(c3)OC(C)(C)C(=O)N4)cn3ncnc23)ccc1N1CCOCC1 [I26, 7-(8-((3-methoxy-4-morpholinophenyl)amino)-[1,2,4]triazolo[1,5-a]pyrazin-6-yl)-2,2-dimethyl-2H-benzo[b][1,4]oxazin-3(4H)-one]
50 to 500 nM												500 to 5000 nM	CC(C)N1C[C@@H]2C[C@@H]1CN2c1ccc(Nc2nc(-c3ccc4[nH]ncc4c3)cn3ncnc23)cc1 [I69, 6-(1H-indazol-5-yl)-N-(4-((1S,4R)-5-isopropyl-2,5-diazabicyclo[2.2.1]heptan-2-yl)phenyl)-[1,2,4]triazolo[1,5-a]pyrazin-8-amine]
≤ 50 nM												50 to 500 nM	COc1cc(Nc2nc(-c3ccc4c(c3)OCC(=O)N4)cn3ncnc23)ccc1N1CCOCC1 [I28, 7-(8-((3-methoxy-4-morpholinophenyl)amino)-[1,2,4]triazolo[1,5-a]pyrazin-6-yl)-2H-benzo[b][1,4]oxazin-3(4H)-one]
50 to 500 nM												> 5000 nM	FC(F)(F)Oc1cc(Nc2nc(-c3ccc4cc[nH]c4c3)cn3ncnc23)ccc1N1CC2CC1CN2C1COC1 (stereo not shown) [I77, 6-(1H-indol-6-yl)-N-(4-(5-(oxetan-3-yl)-2,5-diazabicyclo[2.2.1]heptan-2-yl)-3-(trifluoromethoxy)phenyl)-[1,2,4]triazolo[1,5-a]pyrazin-8-amine]

Reference: patent publication US12577248B2, “Substituted [1,2,4]triazolo[1,5-a]pyrazines as spleen tyrosine kinase inhibitors” (NANJING RUIJIE PHARMA CO., LTD., priority 2020, dated 2026)
